Test results published in the supplement of paper PMC10307832.

Key:
Test in all cases: relative viability (nuclei count vs DMSO), 5 days (fraction); higher = more cells survive
[1] = test system: COR-L23
In short: (§1)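 Each reported value is a median over duplicate plates. It expresses relative viability: treated-well nuclei count divided by vehicle-well nuclei count. Lung cancer cell lines in 1536-well plates were dosed by pin tool a day after seeding, alone with one drug or with a fixed anchor-drug dose plus five library-drug doses (not always all listed) in √10 steps, and nuclei were counted after 5 days.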

[2] = test system: NCI-H1299
In short: as §1

[3] = test system: SK-MES-1
In short: as §1

[4] = test system: NCI-H1651
In short: as §1

[5] = test system: Calu-6
In short: as §1

[6] = test system: EBC-1
In short: as §1

[7] = test system: ABC-1
In short: as §1

[8] = test system: NCI-H1703
In short: as §1

[9] = test system: ChaGo-K-1
In short: as §1

[10] = test system: A549
In short: as §1

[11] = test system: NCI-H1648
In short: as §1

[12] = test system: NCI-H1437
In short: as §1

[13] = test system: IA-LM
In short: as §1

[14] = test system: SW 1573
In short: as §1

Nc1ccn([C@@H]2O[C@H](CO)[C@@H](O)[C@@H]2O)c(=O)n1 [Cytarabine] + O=C(c1cc(Cc2n[nH]c(=O)c3ccccc23)ccc1F)N1CCN(C(=O)C2CC2)CC1 [Olaparib] (partner 8 µM)
relative viability ([1]; first compound 0.005 µM): 0.305 | relative viability ([1]; first compound 0.01581 µM): 0.309 | relative viability ([1]; first compound 0.05 µM): 0.275 | relative viability ([1]; first compound 0.1581 µM): 0.131 | relative viability ([1]; first compound 0.5 µM): 0.124 | relative viability ([2]; first compound 0.005 µM): 0.991 | relative viability ([2]; first compound 0.01581 µM): 0.93 | relative viability ([2]; first compound 0.05 µM): 0.987 | relative viability ([2]; first compound 0.1581 µM): 0.985 | relative viability ([2]; first compound 0.5 µM): 0.94 | relative viability ([3]; first compound 0.005 µM): 0.619 | relative viability ([3]; first compound 0.01581 µM): 0.527 | relative viability ([3]; first compound 0.05 µM): 0.313 | relative viability ([3]; first compound 0.1581 µM): 0.173 | relative viability ([3]; first compound 0.5 µM): 0.183 | relative viability ([4]; first compound 0.005 µM): 0.187 | relative viability ([4]; first compound 0.01581 µM): 0.193 | relative viability ([4]; first compound 0.05 µM): 0.181 | relative viability ([4]; first compound 0.1581 µM): 0.199 | relative viability ([4]; first compound 0.5 µM): 0.168 | relative viability ([5]; first compound 0.005 µM): 0.597 | relative viability ([5]; first compound 0.01581 µM): 0.488 | relative viability ([5]; first compound 0.05 µM): 0.41 | relative viability ([5]; first compound 0.1581 µM): 0.337 | relative viability ([5]; first compound 0.5 µM): 0.225 | relative viability ([6]; first compound 0.005 µM): 0.725 | relative viability ([6]; first compound 0.01581 µM): 0.569 | relative viability ([6]; first compound 0.05 µM): 0.476 | relative viability ([6]; first compound 0.1581 µM): 0.375 | relative viability ([6]; first compound 0.5 µM): 0.241 | relative viability ([7]; first compound 0.005 µM): 0.7 | relative viability ([7]; first compound 0.01581 µM): 0.756 | relative viability ([7]; first compound 0.05 µM): 0.991 | relative viability ([7]; first compound 0.1581 µM): 0.672 | relative viability ([7]; first compound 0.5 µM): 0.61 | relative viability ([8]; first compound 0.005 µM): 0.338 | relative viability ([8]; first compound 0.01581 µM): 0.302 | relative viability ([8]; first compound 0.05 µM): 0.196 | relative viability ([8]; first compound 0.1581 µM): 0.0956 | relative viability ([8]; first compound 0.5 µM): 0.0977 | relative viability ([9]; first compound 0.005 µM): 0.414 | relative viability ([9]; first compound 0.01581 µM): 0.417 | relative viability ([9]; first compound 0.05 µM): 0.32 | relative viability ([9]; first compound 0.1581 µM): 0.238 | relative viability ([9]; first compound 0.5 µM): 0.209 | relative viability ([10]; first compound 0.005 µM): 0.318 | relative viability ([10]; first compound 0.01581 µM): 0.242 | relative viability ([10]; first compound 0.05 µM): 0.0968 | relative viability ([10]; first compound 0.1581 µM): 0.0579 | relative viability ([10]; first compound 0.5 µM): 0.0331 | relative viability ([11]; first compound 0.005 µM): 0.904 | relative viability ([11]; first compound 0.01581 µM): 0.793 | relative viability ([11]; first compound 0.05 µM): 0.954 | relative viability ([11]; first compound 0.1581 µM): 0.319 | relative viability ([11]; first compound 0.5 µM): 0.377 | relative viability ([12]; first compound 0.005 µM): 0.529 | relative viability ([12]; first compound 0.01581 µM): 0.51 | relative viability ([12]; first compound 0.05 µM): 0.469 | relative viability ([12]; first compound 0.1581 µM): 0.283 | relative viability ([12]; first compound 0.5 µM): 0.234 | relative viability ([13]; first compound 0.005 µM): 0.626 | relative viability ([13]; first compound 0.01581 µM): 0.714 | relative viability ([13]; first compound 0.05 µM): 0.55 | relative viability ([13]; first compound 0.1581 µM): 0.372 | relative viability ([13]; first compound 0.5 µM): 0.268 | relative viability ([14]; first compound 0.005 µM): 0.513 | relative viability ([14]; first compound 0.01581 µM): 0.329 | relative viability ([14]; first compound 0.05 µM): 0.384 | relative viability ([14]; first compound 0.1581 µM): 0.166 | relative viability ([14]; first compound 0.5 µM): 0.108
